From US8080544B2, “Prodrugs of CGRP receptor antagonists” (Merck Sharp & Dohme Corp., priority 2008, dated 2011) come the findings set out here.

As a reminder, the AUC is concentration integrated over time. High values mean high exposure, low ones low exposure. The term solubility denotes the dissolved amount per volume that the medium holds. Read a low solubility as a poorly soluble substance.

In brackets after ≈: the same amount, converted by molar mass. Where only a bound is given, the exact number is not on record here.

Series [1] can be described thus: In vivo conversion to telcagepant after IV dosing, rat (plasma AUC by LC/MS). As to conditions: 3.53 umol/kg, IV dose 3.53 μmol/kg, DMSO vehicle, plasma AUC of Compound 1 (telcagepant). The text has this:
The compounds of the present invention may be efficiently converted to give parent telcagepant in vivo. For illustrative purposes, data for the in vivo conversion of Example 1 to telcagepant in preclinical species are shown in Table 2.

A further series is described as follows: Aqueous solubility. The series is classed as physicochemical. As to conditions: for solubility: aqueous solution. The text has this:
The compounds of the present invention may have improved aqueous solubility compared with telcagepant.

In turn, `O=C(N[C@@H]1CC[C@@H](c2cccc(F)c2F)CN(CC(F)(F)F)C1=O)N1CCC(n2c(=O)[nH]c3ncccc32)CC1` [Telcagepant, N-[(3R,6S)-6-(2,3-difluorophenyl)-2-oxo-1-(2,2,2-trifluoroethyl)azepan-3-yl]-4-(2-oxo-2,3-dihydro-1H-imidazo[4,5-b]pyridine-1-yl)piperidin-1-carboxamide] gave an exposure (AUC) in series [1] of 6.46 µM·h. Further, the solubility in “Aqueous solubility” (aqueous buffer, pH 2.0) is 77 µg/mL (≈ 136 µM); in “Aqueous solubility” (pH 7.3, aqueous buffer), 31 µg/mL (≈ 54.7 µM). The “aqueous solubility (in words)” value in the series “Aqueous solubility” (general statement, no pH given) is on record as “low aqueous solubility”.
`O=C(N[C@@H]1CC[C@@H](c2cccc(F)c2F)CN(CC(F)(F)F)C1=O)N1CCC(n2c(=O)n(COP(=O)([O-])O)c3ncccc32)CC1.[Na+]` [Example 1, {1-[1-({[(3R,6S)-6-(2,3-Difluorophenyl)-2-oxo-1-(2,2,2-trifluoroethyl)azepan-3-yl]amino}carbonyl)piperidin-4-yl]-2-oxo-1,2-dihydro-3H-imidazo[4,5-b]pyridin-3-yl}methyl hydrogen sodium phosphate]: the solubility in the series “Aqueous solubility” (aqueous buffer, pH 4.0) was above 150000 µg/mL; in the series “Aqueous solubility” (aqueous buffer, pH 9.0) it was above 150000 µg/mL.
